In PubChem BioAssay AID330 (DTP/NCI, 2004):
Where “and” joins values, the source holds several entries; their conditions need not be identical. Equal entries are not always repeated. Inconclusive results and toxic doses are left out.

System: P388 leukemia ip, CD2F1 mice, survival T/C
Experiment: NCI In Vivo Anticancer Drug Screen. Data for tumor model P388 Leukemia (intraperitoneal) in CD2F1 (CDF1) mice
Conditions: endpoint: median survival time, higher = longer survival
Procedure, shortened: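 Mice carrying the transplanted tumor received test compound or vehicle. Survival was recorded in each group, and the value is the treated-group measurement divided by that of the vehicle-treated control group.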

[1] = dose: 50.0 mg/kg/injection, schedule: Q01DX005 (ip), vehicle: Klucel (hydroxypropylcellulose) (HPC)
[2] = dose: 100.0 mg/kg/injection, schedule: Q01DX005 (ip), vehicle: Klucel (hydroxypropylcellulose) (HPC)
[3] = dose: 200.0 mg/kg/injection, schedule: Q01DX005 (ip), vehicle: Klucel (hydroxypropylcellulose) (HPC)
[4] = dose: 100.0 mg/kg/injection, schedule: Q04DX002 (ip), vehicle: Klucel (hydroxypropylcellulose) (HPC)
[5] = dose: 200.0 mg/kg/injection, schedule: Q04DX002 (ip), vehicle: Klucel (hydroxypropylcellulose) (HPC)
[6] = dose: 12.5 mg/kg/injection, schedule: Q04DX003 (ip), vehicle: saline with Tween-80
[7] = dose: 25.0 mg/kg/injection, schedule: Q04DX003 (ip), vehicle: saline with Tween-80
[8] = dose: 50.0 mg/kg/injection, schedule: Q01DX009 (ip), vehicle: saline
[9] = dose: 100.0 mg/kg/injection, schedule: Q01DX009 (ip), vehicle: saline
[10] = dose: 200.0 mg/kg/injection, schedule: Q01DX009 (ip), vehicle: saline
[11] = dose: 25.0 mg/kg/injection, schedule: Q01DX005 (ip), vehicle: saline with Tween-80
[12] = dose: 50.0 mg/kg/injection, schedule: Q01DX005 (ip), vehicle: saline with Tween-80
[13] = dose: 100.0 mg/kg/injection, schedule: Q01DX005 (ip), vehicle: saline with Tween-80
[14] = dose: 200.0 mg/kg/injection, schedule: Q01DX005 (ip), vehicle: saline with Tween-80
[15] = dose: 50.0 mg/kg/injection, schedule: Q01DX009 (ip), vehicle: saline with Tween-80
[16] = dose: 12.5 mg/kg/injection, schedule: Q01DX005 (ip), vehicle: saline with Tween-80
[17] = dose: 12.5 mg/kg/injection, schedule: Q01DX009 (ip), vehicle: saline with Tween-80
[18] = dose: 25.0 mg/kg/injection, schedule: Q01DX009 (ip), vehicle: saline with Tween-80

c1cc(-c2[nH]c3cc(C4=NCCN4)ccc3c2-c2cc3ccc(C4=NCCN4)cc3[nH]2)ccc1C1=NCCN1
T/C (dose: 3.12 mg/kg/injection, schedule: Q01DX005 (ip), vehicle: Klucel (hydroxypropylcellulose) (HPC)): 107 % of control
T/C (dose: 6.25 mg/kg/injection, schedule: Q01DX005 (ip), vehicle: Klucel (hydroxypropylcellulose) (HPC)): 96 % of control
T/C (dose: 12.5 mg/kg/injection, schedule: Q01DX005 (ip), vehicle: Klucel (hydroxypropylcellulose) (HPC)): 109 % of control

CS(=O)(=O)C(CCC(=O)c1ccc2ccccc2c1)C(=O)c1ccccc1 (configuration not stated)
T/C [1]: 88 % of control
T/C [2]: 89 % of control
T/C [3]: 92 % of control

Nc1ccc(CNC(=O)COc2cccc(Cl)c2)cc1
T/C [4]: 102 % of control
T/C [5]: 108 % of control
T/C (dose: 400.0 mg/kg/injection, schedule: Q04DX002 (ip), vehicle: Klucel (hydroxypropylcellulose) (HPC)): 96 % of control

O=C(C=C(C(F)(F)F)C(F)(F)F)c1ccc(Cl)c2ccccc12
T/C [6]: 113 % of control
T/C [7]: 118 % of control

CC(C)C1CCC2(C)CCC3(C)CCC12O3 (configuration not stated)
T/C (dose: 12.0 mg/kg/injection, schedule: Q01DX009 (ip), vehicle: Klucel (hydroxypropylcellulose) (HPC)): 108 % of control
T/C (dose: 24.0 mg/kg/injection, schedule: Q01DX009 (ip), vehicle: Klucel (hydroxypropylcellulose) (HPC)): 98 % of control
T/C (dose: 48.0 mg/kg/injection, schedule: Q01DX009 (ip), vehicle: Klucel (hydroxypropylcellulose) (HPC)): 108 % of control
T/C (dose: 96.0 mg/kg/injection, schedule: Q01DX009 (ip), vehicle: Klucel (hydroxypropylcellulose) (HPC)): 108 % of control

CN(C)CCOc1ccc2c(c1)CCC2=O
T/C [8]: 108 % of control
T/C [9]: 118 % of control
T/C [10]: 108 % of control

CN(C)c1ccc2[nH]c3c(C(N)=O)cc(=O)c(=O)c=3oc2c1
T/C [11]: 100 % of control and 107 % of control
T/C [12]: 98 % of control and 100 % of control (2×)
T/C [13]: 100 % of control and 120 % of control and 97 % of control
T/C [14]: 98 % of control and 107 % of control and 117 % of control

Sc1nc2ccccc2s1.Sc1nc2ccccc2s1.Sc1nc2ccccc2s1.Sc1nc2ccccc2s1.[Cl][Rh][Cl]
T/C [15]: 93 % of control
T/C (dose: 100.0 mg/kg/injection, schedule: Q01DX009 (ip), vehicle: saline with Tween-80): 101 % of control
T/C (dose: 200.0 mg/kg/injection, schedule: Q01DX009 (ip), vehicle: saline with Tween-80): 101 % of control

COc1ccccc1C1OC2=Nc3cc(C)c(C)cc3NC2C1=O (configuration not stated)
T/C (dose: 30.0 mg/kg/injection, schedule: Q01DX005 (ip), vehicle: Klucel (hydroxypropylcellulose) (HPC)): 96 % of control
T/C (dose: 60.0 mg/kg/injection, schedule: Q01DX005 (ip), vehicle: Klucel (hydroxypropylcellulose) (HPC)): 93 % of control
T/C (dose: 120.0 mg/kg/injection, schedule: Q01DX005 (ip), vehicle: Klucel (hydroxypropylcellulose) (HPC)): 90 % of control
T/C (dose: 240.0 mg/kg/injection, schedule: Q01DX005 (ip), vehicle: Klucel (hydroxypropylcellulose) (HPC)): 95 % of control

CC(=O)C(N=Nc1cc([N+](=O)[O-])cc(S(=O)(=O)O)c1O)C(=O)Nc1ccccc1.[Cr] (configuration not stated)
T/C [8]: 107 % of control
T/C [9]: 99 % of control
T/C [10]: 97 % of control

C=CC(=O)OC1CC(O)C2(C)CC3C(=C)C(=O)OC3CC(C)C12 (configuration not stated)
T/C (dose: 100.0 mg/kg/injection, schedule: Q04DX002 (ip), vehicle: saline with Tween-80): 107 % of control
T/C (dose: 200.0 mg/kg/injection, schedule: Q04DX002 (ip), vehicle: saline with Tween-80): 110 % of control
T/C (dose: 400.0 mg/kg/injection, schedule: Q04DX002 (ip), vehicle: saline with Tween-80): 109 % of control

COc1ccc2c(c1)C13CCCCC1C(C2)N(C)CC3 (configuration not stated)
T/C [16]: 94 % of control
T/C [11]: 100 % of control
T/C [12]: 100 % of control
T/C (dose: 50.0 mg/kg/injection, schedule: Q01DX005 (ip), vehicle: saline): 99 % of control

Cc1cc(NC(=O)c2ccc(N)cc2)ccc1N=Nc1ccc2c(O)c(N=Nc3ccc(S(=O)(=O)O)cc3C)c(S(=O)(=O)O)cc2c1
T/C [12]: 100 % of control
T/C [13]: 90 % of control

CCCn1c(C)nc2ncn(-c3ccccc3)c2c1=O
T/C [1]: 101 % of control
T/C [2]: 102 % of control
T/C [3]: 101 % of control

O=C(c1ccccc1)c1no[n+]([O-])c1C(=O)c1ccccc1
T/C (dose: 3.12 mg/kg/injection, schedule: Q01DX009 (ip), vehicle: Klucel (hydroxypropylcellulose) (HPC)): 102 % of control and 114 % of control and 116 % of control
T/C (dose: 6.25 mg/kg/injection, schedule: Q01DX009 (ip), vehicle: Klucel (hydroxypropylcellulose) (HPC)): 100 % of control and 117 % of control
T/C (dose: 12.5 mg/kg/injection, schedule: Q01DX009 (ip), vehicle: Klucel (hydroxypropylcellulose) (HPC)): 105 % of control and 123 % of control

CC(C#N)CCCC#N (configuration not stated)
T/C [17]: 100 % of control
T/C [18]: 100 % of control
T/C [15]: 100 % of control

C=C1CC2C(C1=O)C(c1ccc(OC)cc1)C13OC1CCC23 (configuration not stated)
T/C (dose: 100.0 mg/kg/injection, schedule: Q04DX003 (ip), vehicle: Klucel (hydroxypropylcellulose) (HPC)): 105 % of control
T/C (dose: 200.0 mg/kg/injection, schedule: Q04DX003 (ip), vehicle: Klucel (hydroxypropylcellulose) (HPC)): 96 % of control
T/C (dose: 400.0 mg/kg/injection, schedule: Q04DX003 (ip), vehicle: Klucel (hydroxypropylcellulose) (HPC)): 86 % of control

Cc1ccc(C(C)C)cc1NC(=O)c1cccnc1
T/C (dose: 50.0 mg/kg/injection, schedule: Q04DX002 (ip), vehicle: Klucel (hydroxypropylcellulose) (HPC)): 98 % of control
T/C [4]: 102 % of control
T/C [5]: 92 % of control

CCOc1cc2c(OCc3ccccc3)cc3c4cc(OC)c(OC)cc4c[n+](C)c3c2cc1OC
T/C (dose: 3.12 mg/kg/injection, schedule: Q01DX005 (ip), vehicle: saline with Tween-80): 118 % of control
T/C (dose: 6.25 mg/kg/injection, schedule: Q01DX005 (ip), vehicle: saline with Tween-80): 112 % of control
T/C [16]: 91 % of control

CCOC(=O)CC(=O)c1sc(SC)c(C#N)c1N
T/C [12]: 106 % of control
T/C [13]: 100 % of control
T/C [14]: 93 % of control

CNC(=O)NNC(=O)c1ccccc1Cl
T/C (dose: 60.0 mg/kg/injection, schedule: Q01DX005 (ip), vehicle: saline with Tween-80): 106 % of control
T/C (dose: 120.0 mg/kg/injection, schedule: Q01DX005 (ip), vehicle: saline with Tween-80): 101 % of control
T/C (dose: 240.0 mg/kg/injection, schedule: Q01DX005 (ip), vehicle: saline with Tween-80): 103 % of control

C1CCSCCCCCSCCCCCSCCCCCSCC1
T/C (dose: 50.0 mg/kg/injection, schedule: Q01DX009 (ip), vehicle: Klucel (hydroxypropylcellulose) (HPC)): 97 % of control
T/C (dose: 100.0 mg/kg/injection, schedule: Q01DX009 (ip), vehicle: Klucel (hydroxypropylcellulose) (HPC)): 96 % of control
T/C (dose: 200.0 mg/kg/injection, schedule: Q01DX009 (ip), vehicle: Klucel (hydroxypropylcellulose) (HPC)): 94 % of control

N#Cc1ccc(NN=NCCO)cc1
T/C (dose: 12.5 mg/kg/injection, schedule: Q01DX009 (ip), vehicle: distilled water + Tween-80): 100 % of control
T/C (dose: 25.0 mg/kg/injection, schedule: Q01DX009 (ip), vehicle: distilled water + Tween-80): 102 % of control
T/C (dose: 50.0 mg/kg/injection, schedule: Q01DX009 (ip), vehicle: distilled water + Tween-80): 100 % of control
T/C (dose: 100.0 mg/kg/injection, schedule: Q01DX009 (ip), vehicle: distilled water + Tween-80): 102 % of control

c1cc2c(cc1NC1=NCCO1)CCC2
T/C (dose: 6.25 mg/kg/injection, schedule: Q04DX003 (ip), vehicle: saline with Tween-80): 100 % of control
T/C [6]: 100 % of control
T/C [7]: 100 % of control

[O-][n+]1c2c(cc3ccccc31)Cc1ccccc1-2
T/C [1]: 109 % of control
T/C [2]: 101 % of control
T/C [3]: 106 % of control

CCCCCCCCCCCCCCCCN(C)CCO
T/C [17]: 104 % of control
T/C [18]: 106 % of control
T/C [15]: 99 % of control

O=C(O)C(Cc1ccc(N(CCCl)CCCl)cc1)C(=O)O
T/C [17]: 161 % of control
T/C [18]: 171 % of control
T/C [15]: 189 % of control and 213 % of control

c1ccc2c(c1)nnn1c3ncccc3nc21
T/C [17]: 108 % of control
T/C [18]: 105 % of control
T/C [15]: 105 % of control
